Assay results published in patent publication US10821097B2, “DBH inhibitors for treating or preventing memory loss” (Brandeis University, priority 2015, dated 2020).

Assays:
DBH [1] = settings: in vivo; cited from earlier work
DBH [2] = target: T1, DBH (Rattus norvegicus, UniProt Q05754); settings: cited from earlier work; for blood-brain barrier crossing, indicated by effect of injections on brain dopamine levels: Antabuse 100 mg/kg, Nepicastat 50 mg/kg, intraperitoneal
T1 construct: In rat studies, Antabuse (100 mg/kg) and Nepicastat (50 mg/kg) were injected intraperitoneally; host or cells: rat, in vivo (endogenous enzyme)
T1 sequence (Q05754 1-620): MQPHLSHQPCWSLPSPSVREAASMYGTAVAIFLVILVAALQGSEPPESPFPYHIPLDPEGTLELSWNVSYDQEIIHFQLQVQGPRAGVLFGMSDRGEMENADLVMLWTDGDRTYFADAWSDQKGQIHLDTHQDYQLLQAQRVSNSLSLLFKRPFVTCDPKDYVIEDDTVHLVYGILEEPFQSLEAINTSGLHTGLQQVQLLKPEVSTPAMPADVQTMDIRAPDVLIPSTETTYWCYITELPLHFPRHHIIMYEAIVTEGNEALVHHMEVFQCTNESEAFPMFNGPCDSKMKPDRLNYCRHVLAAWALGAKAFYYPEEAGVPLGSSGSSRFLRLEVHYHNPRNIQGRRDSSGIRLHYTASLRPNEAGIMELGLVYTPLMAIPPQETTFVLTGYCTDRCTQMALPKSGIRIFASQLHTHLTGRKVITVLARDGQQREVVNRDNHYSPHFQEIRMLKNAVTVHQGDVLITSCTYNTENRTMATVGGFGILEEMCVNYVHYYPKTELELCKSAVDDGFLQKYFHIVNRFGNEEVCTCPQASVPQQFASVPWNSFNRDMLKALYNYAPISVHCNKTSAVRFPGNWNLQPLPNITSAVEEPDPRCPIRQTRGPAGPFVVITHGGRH

[3] = up to 120 mg/day; cited from earlier work
LC = test: event arena memory test in KORD mice with the LC inhibited by SALB; assay type: in vivo; settings: SALB subcutaneously 10 minutes before encoding trial
D1R = test: light-stimulated dopamine release from LC axons, fEPSP in CA1 of hippocampal slices; assay type: cell-based; settings: 10 uM, n=4, Schaffer collateral stimulation
From the text: The chemogenetic approach allows the acute memory deficits produced by graded decrease in LC function to be measured. This model then provides a rigorous and rapid screening method to determine whether the resulting memory deficits can be reversed by agents that enhance dopamine release (with or without noradrenaline stimulants). Results in FIG. 2 document the role of LC axons in producing functionally important dopamine release. The experiments were done in CA1 using synaptic stimulation of Schaffer collaterals to measure synaptic strength. FIG. 2, left: brief light stimulation of the hippocampus (arrow) produces a long-lasting enhancement of the fEPSP (normalized increase in charge) (n=5). This light-stimulated release of dopamine replicates the effect of direct application of dopamine (Huang and Kandel, 1995). […] Stimulation protocol: three sets of ˜18 Hz stimulation (5 msec light pulses)=a total of 60 pulses/set; 1 minute between sets. The LC was injected in vivo with AAV virus that produced channel-rhodopsin in cells containing tyrosine hydroxylase, an enzyme in the dopamine and noradrenaline synthesis pathway (see FIG. 1). The selective expression in noradrenergic cells in the LC is due to Cre expression driven by a tyrosine hydroxylase promoter. […] The response of CA1 pyramidal cells was measured by the field EPSP (fEPSP). […]

[4] = IP, suspension in sterile saline

## CCN(CC)C(=S)SSC(=S)N(CC)CC [Disulfiram, 1,1′,1″,1′″-[disulfanediylbis(carbonothioylnitrilo)]tetraethane]
DBH [1]
  effect on dopamine concentration and/or dopamine release: increase the concentration of dopamine and/or increase dopamine release
DBH [2]
  blood-brain barrier crossing, indicated by effect of injections on brain dopamine levels: cross the blood-brain barrier
DBH [2]; [4]
  highest effective dose that didn't affect operant responses: 100 mg/kg
  lowest effective concentration: 10 mg/kg

## NCc1c[nH]c(=S)n1[C@H]1CCc2c(F)cc(F)cc2C1 [Nepicastat, 5-(aminomethyl)-1-[(2S)-5,7-difluoro-1,2,3,4-tetrahydronaphthalen-2-yl]-1,3-dihydro-2H-imidazole-2-thione]
[3]
  tolerability: well tolerated
DBH [1]
  effect on dopamine concentration and/or dopamine release: increase the concentration of dopamine and/or increase dopamine release
DBH [2]
  blood-brain barrier crossing, indicated by effect of injections on brain dopamine levels: cross the blood-brain barrier
DBH [2]; IP
  dose reported to match the 100 mg/kg dose of Antabuse on DBH: 50 mg/kg

## COC(=O)[C@@H]1C[C@H](O)C(=O)[C@H]2[C@@]1(C)CC[C@H]1C(=O)O[C@H](c3ccoc3)C[C@]21C [SALB, salvinorin B]
LC
  24 hr memory: strongly reduce

## CN1CCc2cc(Cl)c(O)cc2[C@H]2c3ccccc3CC[C@@H]21 [SCH39166]
D1R
  enhancement of the fEPSP by light stimulation of LC axons in the presence of the antagonist: no enhancement
